A short description of data set [1]: In vitro peptide aging: deamidation of the asparaginyl residue, by reverse-phase HPLC with UV at 210 nm. The conditions noted are these: pH 7.4, 37° C.
Method: (§1) Deuterated peptide VYPNGA and the protonated control peptide were dissolved in 0.1 M sodium phosphate, pH 7.44 at 23° C. These solutions were sterilized by passing them through 0.2 μm pore syringe filters (Fisher), and 50 μL aliquots containing 40 nmol of peptide were placed in 200 μL PCR tubes, which were incubated at 37° C. for various times up to 20.6 days. At this temperature, the pH of the phosphate buffer is very close to 7.40. At the end of the incubations, 4.5 μL of 1 M hydrochloric acid was added to each tube, lowering the pH to about 4 to minimize any additional deamidation of the asparaginyl residue. These aged samples were then stored at −20° C. prior to analysis by HPLC.
(§2) Deuterated and non-deuterated VYPNGA were aged in vitro in 0.1 M sodium phosphate at physiological pH and temperature. The rate of deamidation of the asparaginyl residue was determined by separating the peptide from its degradation products using reverse phase HPLC and measuring the UV absorbance at 210 nm using the approach of Geiger and Clarke, supra.
(§3) The l- and d-forms of these peptides were not separated under these conditions. These HPLC runs were done with a linear gradient from 100% buffer A (0.1% trifluoroacetic acid in water) to 86% buffer A/14% buffer B (0.1% trifluoroacetic acid, 0.9% water, 99% acetonitrile) in 28 min.
(§4) The relative quantity of asparagine-containing peptide remaining (open circles) was quantified by UV absorbance at 210 nm during separation of the peptides by HPLC using a reverse phase C18 column as shown in FIG. 2. There were 24 data points in each panel though some were concealed due to overlap, combined from two independent aging experiments. The line in each panel was fit to the data points using the first order reaction equation [A]=[A]0e−kt and least squares analysis.
Data set [2] is described as follows: In vitro peptide aging: hydrolysis of the succinimide intermediate to isoaspartyl vs normal aspartyl peptide (HPLC). The conditions noted are these: for average relative amount of isoaspartyl-containing peptide (isoAsp/(isoAsp+Asp)): samples aged at 37° C. for at least 24 h, pH 7.4. Type of data set: physicochemical. As to the method: Both isoaspartyl- and normal aspartyl-containing peptides arose from spontaneous deamidation of the deuterated asparaginyl residue upon incubation at pH 7.4 and 37° C.

Data set [3] in a line: In vitro peptide aging: racemization, D-aspartate quantified in acid hydrolysates and rate constants fitted. Type of data set: physicochemical. The conditions noted are these: for Asn/Asp/isoAsp residues racemized to the D-configuration by 4 days: 4 days of aging; for racemization rate constant of the succinimide: least squares fit of modeled D-Asx accumulation to measured values; for slope of racemization line (D-aspartate fraction versus time): deamidated peptides. The procedure: First, a 10 μL aliquot (3.27 nmol) was removed from the aged sample and dried in a small glass test tube. These tubes were placed in a hydrolysis vial and 300 μL of 6 M hydrochloric acid was added to the vial but not directly into the sample tubes. The vial was capped with a Teflon stopcock, and then was flushed with nitrogen and sealed under vacuum using a PicoTag Work Station (Waters). This method allows only acid vapor to contact the peptide, minimizing contamination with exogenous aspartic acid. Hydrolysis proceeded at 110° C. for the relatively short time of 3 h, which is long enough to release most of the asparaginyl/aspartyl residues from the peptide, while minimizing acid catalyzed racemization (Brunauer and Clarke 1986). D-Aspartate and L-aspartate in the hydrolysates were then modified with o-phthalaldehyde and N-acetyl-L-cysteine to make fluorescent diasteriomers and quantitated using reverse phase HPLC with fluorometric analysis (Aswad 1984), as modified by Warmack et al. 2016.
To get an estimate of the racemization rate constants, the rate constants determined by Geiger and Clarke (1987) for a peptide of the same sequence was used but only with protonated asparagine using the following equations, where each k value has the units of min^−1: […]
At time zero, the l-asparaginyl-containing peptide is set to a quantity of 1.0, and all of the degradation products are considered to have a quantity of 0. The equations are then solved to give the quantities of the peptides present after 1 min, and these quantities are then used to solve the peptides for the next minute. Using Microsoft Excel, these calculations were repeated until the amount of each peptide present after 20.6 days was determined.
To investigate the effect of asparagine residue deuteration on racemization, the peptides were aged at 37° C. and pH 7.4 as described above, and the quantity of D-aspartate determined following acid hydrolysis. While breaking the peptide bonds to release free amino acids, acid hydrolysis also converts asparaginyl, succinimidyl, and isoaspartyl residues into free aspartic acid. […] The accumulation of D-Asx residues (D-Asp, D-isoAsp, and D-succinimide) was modeled using the rate constants as described in the “Materials and methods” section to fit the data points using the values obtained by Geiger and Clarke (1987) and maximizing the fit by varying the rate constant for succinimide racemization.
VYPNGA containing either protiated or deuterated asparagine was incubated for various times at 37° C. and pH 7.4 and then acid hydrolyzed. The amount of d-aspartate and l-aspartate in the hydrolysates was quantified following derivatization with ortho-phthalaldehyde and N-acetyl-1-cysteine and separation of the resulting fluorescent diastereomers by reverse-phase HPLC, and graphed as the fraction of d-aspartate relative to the total aspartate (open circles). […] The lines were obtained by computer simulation of the reactions involved in deamidation of asparaginyl residues starting with previously published kinetic constants (Geiger and Clarke 1987), and varying the racemization rate of the succinimide intermediate to give a best-fit line as determined by least squares analysis.

The nature of the next data set: physchem. The conditions noted are these: buffer, pH 7.4.
For data set [4] the following is noted: Geiger and Clarke 1987; cited from earlier work.
The conditions of data set [5]: Stephenson and Clarke; cited from earlier work.
The mark [6] stands for this setting: between 9 and 22 days of incubation.

“Also recorded” adds a separate entry of the source. Where no end group is shown, it is not given here.

Consider two substances from patent US20190084900A1, “ISOTOPICALLY MODIFIED COMPOSITION AND THERAPEUTIC USES THEREOF” (RETROTOPE, INC., priority 2016, published 2019).

Usually half-life stands for the time needed for the level to fall by half in the phase considered. Low values mean rapid decline, high ones slow decline.

Method for physchem: as §1, §2, §3, §4

With VYPNGA [deuterated peptide], in data set [1], the “asparaginyl residues deamidated after 6 days” value was “about 95%” and the “asparaginyl residues deamidated after three days” value was found to be 80%. Further, in data set [1] (versus protiated peptide), the “effect of deuterium atoms on rate of deamidation / succinimide formation” value is “little effect; also recorded: unchanged; also recorded: no effect”. For the same substance, the “increase in production of normal aspartyl-containing peptide upon hydrolysis of the succinimide ring” value in data set [2] (deuterated versus protiated succinimide) was “about 2.3%”. The “tendency of the succinimide to open to the isoaspartyl configuration / effect on succinimide hydrolysis” value in data set [2] (deuterated versus protonated succinimide) is given as “slightly less likely to open to the isoaspartyl configuration; also recorded: only a small effect”. Further, in data set [2], the “average relative amount of isoaspartyl-containing peptide (isoAsp/(isoAsp+Asp))” value is reported as 0.770. In addition, in data set [3] (37° C., pH 7.4), the “racemization rate constant relative to protiated peptide” value is on record as “almost five-fold lower”, the “Asn/Asp/isoAsp residues racemized to the D-configuration by 4 days” value is 1% and the “racemization rate constant of the succinimide” value amounted to 7.4e-05 min⁻¹. Besides, the “aspartyl/isoaspartyl/succinimidyl residues racemized to the D-configuration after 21 days” value in data set [3] (37° C., pH 7.4, 21 days of incubation) amounted to 1.49%. Further, the “succinimides that have lost the deuterium from the alpha carbon” value in data set [3] (21 days of incubation, 2×1.49%) was 2.98%. Moreover, the “deamidated peptide still deuterated on the alpha carbon” value in data set [3] (after incubation, 9 to 22 days) is “over 97%”. For the same substance, in data set [3] (setting [6]), the “rate of racemization of l-aspartyl/l-isoaspartyl residues relative to protiated” value is on record as “about fourfold slower” and the “slope of racemization line (D-aspartate fraction versus time)” value is “about 1.70×10^−4 day^−1”. For the same substance, the “accumulation of d-aspartyl and d-isoaspartyl forms / rate of D-aspartate formation relative to protiated peptide” value in data set [3] (pH 7.4, 37° C., up to 20 day incubation) is given as “much slower rate; also recorded: decreased more than five-fold; also recorded: five-fold decreased rate; also recorded: much more resistant to racemization”.

Regarding “VYPNGA [protiated peptide, L-Val-L-Tyr-L-Pro-L-Asn-Gly-L-Ala, reference compound]”, the half-life at 800 µM in “physchem” was 32.4 h. In data set [4], the “L-isoAsp/(L-isoAsp+L-Asp) previously reported” value is 0.785. In addition, in data set [5], the “succinimide formation of Asn residue in VYPNGA relative to aspartyl residue in VYPDGA” value is on record as “about 37 times”. Further, in data set [1], the “asparaginyl residues deamidated after 6 days” value is “about 95%” and the “asparaginyl residues deamidated after three days” value came out at 80%. The “average relative amount of isoaspartyl-containing peptide (isoAsp/(isoAsp+Asp))” value in data set [2] was 0.793. Further, in data set [3] (37° C., pH 7.4), the “Asn/Asp/isoAsp residues racemized to the D-configuration by 4 days” value is given as 5% and the “racemization rate constant of the succinimide” value was found to be 0.00034 min⁻¹. The substance further showed a slope of racemization line (D-aspartate fraction versus time) in data set [3] (setting [6]) of 0.000677 day⁻¹. The “racemization rate constant relative to that previously measured (Geiger and Clarke)” value in data set [3] (higher than the literature value) is “about 1.14 fold”. Also, in data set [3] (within the first day of aging under physiological conditions), the “rate of racemization of protiated peptide relative to deuterated peptide” value was 3.65 times.
